In ChEMBL document CHEMBL5058645, “Data for DCP probe JNJ-6204” (2022):

Tests used:
[1] = biological target: Ephrin type-B receptor 3 (Homo sapiens) (UniProt P54753); test: EphB3(h) Kinase panel; conditions: Compound concentration 1.0 uM, tested as the 2H-labelled form
[2] = biological target: Cyclin-dependent kinase 18 (Homo sapiens) (UniProt Q07002); test: CDK18/cyclinY(h) Kinase panel; conditions: Compound concentration 1.0 uM, tested as the 2H-labelled form
[3] = biological target: Serine/threonine-protein kinase ICK (Homo sapiens) (UniProt Q9UPZ9); test: ICK(h) Kinase panel; conditions: Compound concentration 1.0 uM, tested as the 2H-labelled form
[4] = biological target: cAMP-dependent protein kinase catalytic subunit alpha (Homo sapiens) (UniProt P17612); test: PKA(h) Kinase panel; conditions: Compound concentration 1.0 uM, tested as the 2H-labelled form
Rattus norvegicus = species: Rattus norvegicus; conditions: Compound concentration 10.0 uM, tested as the 2H-labelled form
[5] = biological target: Serine/threonine-protein kinase PLK2 (Homo sapiens) (UniProt Q9NYY3); test: Snk(h) Kinase panel; conditions: Compound concentration 1.0 uM, tested as the 2H-labelled form
[6] = biological target: Calcium/calmodulin-dependent protein kinase type 1D (Homo sapiens) (UniProt Q8IU85); test: CaMKIdelta(h) Kinase panel; conditions: Compound concentration 1.0 uM, tested as the 2H-labelled form
[7] = biological target: Serine/threonine-protein kinase 32A (Homo sapiens) (UniProt Q8WU08); test: STK32A(h) Kinase panel; conditions: Compound concentration 1.0 uM, tested as the 2H-labelled form
[8] = biological target: Vascular endothelial growth factor receptor 1 (Homo sapiens) (UniProt P17948); test: Flt1(h) Kinase panel; conditions: Compound concentration 1.0 uM, tested as the 2H-labelled form
[9] = biological target: Mitogen-activated protein kinase 8 (Homo sapiens) (UniProt P45983); test: JNK1alpha1(h) Kinase panel; conditions: Compound concentration 1.0 uM, tested as the 2H-labelled form
[10] = biological target: Tyrosine-protein kinase Fgr (Homo sapiens) (UniProt P09769); test: Fgr(h) Kinase panel; conditions: Compound concentration 1.0 uM, tested as the 2H-labelled form
[11] = biological target: Dual specificity tyrosine-phosphorylation-regulated kinase 2 (Homo sapiens) (UniProt Q92630); test: DYRK2(h) Kinase panel; conditions: Compound concentration 1.0 uM, tested as the 2H-labelled form
[12] = biological target: Kappa-type opioid receptor (Homo sapiens) (UniProt P41145); conditions: Compound concentration 10.0 uM, tested as the 2H-labelled form
[13] = biological target: Calcium/calmodulin-dependent protein kinase type IV (Homo sapiens) (UniProt Q16566); test: CaMKIV(h) Kinase panel; conditions: Compound concentration 1.0 uM, tested as the 2H-labelled form
[14] = biological target: Casein kinase I isoform delta (Homo sapiens, UniProt P48730); conditions: Compound concentration 1.0 uM
[15] = biological target: Serine/threonine-protein kinase Nek11 (Homo sapiens) (UniProt Q8NG66); test: NEK11(h) Kinase panel; conditions: Compound concentration 1.0 uM, tested as the 2H-labelled form
[16] = biological target: Protein kinase C epsilon type (Homo sapiens) (UniProt Q02156); test: PKCepsilon (h) Kinase panel; conditions: Compound concentration 1.0 uM, tested as the 2H-labelled form
[17] = biological target: Focal adhesion kinase 1 (Homo sapiens) (UniProt Q05397); test: FAK(h) Kinase panel; conditions: Compound concentration 1.0 uM, tested as the 2H-labelled form
[18] = biological target: Muscle, skeletal receptor tyrosine-protein kinase (Homo sapiens) (UniProt O15146); test: MuSK(h) Kinase panel; conditions: Compound concentration 1.0 uM, tested as the 2H-labelled form
[19] = biological target: PAS domain-containing serine/threonine-protein kinase (Homo sapiens) (UniProt Q96RG2); test: PASK(h) Kinase panel; conditions: Compound concentration 1.0 uM, tested as the 2H-labelled form
[20] = biological target: Protein kinase C beta type (Homo sapiens) (UniProt P05771); test: PKCbetaI (h) Kinase panel; conditions: Compound concentration 1.0 uM, tested as the 2H-labelled form
[21] = biological target: RAC-beta serine/threonine-protein kinase (Homo sapiens) (UniProt P31751); test: PKBbeta (h) Kinase panel; conditions: Compound concentration 1.0 uM, tested as the 2H-labelled form
[22] = biological target: Serine/threonine-protein kinase N2 (Homo sapiens) (UniProt Q16513); test: PRK2(h) Kinase panel; conditions: Compound concentration 1.0 uM, tested as the 2H-labelled form
[23] = biological target: Calcium/calmodulin-dependent protein kinase type 1G (Homo sapiens) (UniProt Q96NX5); test: CaMKIgamma(h) Kinase panel; conditions: Compound concentration 1.0 uM, tested as the 2H-labelled form
Homo sapiens = species: Homo sapiens; test: MAPK2(h) Kinase panel; conditions: Compound concentration 1.0 uM, tested as the 2H-labelled form
[24] = biological target: Dual specificity protein kinase TTK (Homo sapiens) (UniProt P33981); test: TTK(h) Kinase panel; conditions: Compound concentration 1.0 uM, tested as the 2H-labelled form
[25] = biological target: Eukaryotic elongation factor 2 kinase (Homo sapiens) (UniProt O00418); test: eEF-2K(h) Kinase panel; conditions: Compound concentration 1.0 uM, tested as the 2H-labelled form
[26] = biological target: Dual specificity tyrosine-phosphorylation-regulated kinase 3 (Homo sapiens) (UniProt O43781); test: DYRK3(h) Kinase panel; conditions: Compound concentration 1.0 uM, tested as the 2H-labelled form
[27] = biological target: Serine/threonine-protein kinase mTOR (Homo sapiens) (UniProt P42345); test: mTOR(h) Kinase panel; conditions: Compound concentration 1.0 uM, tested as the 2H-labelled form
[28] = biological target: Serine/threonine-protein kinase DCLK1 (Homo sapiens) (UniProt O15075); test: DCAMKL1(h) Kinase panel; conditions: Compound concentration 1.0 uM, tested as the 2H-labelled form
[29] = biological target: Dual specificity protein kinase CLK4 (Homo sapiens) (UniProt Q9HAZ1); test: CLK4(h) Kinase panel; conditions: Compound concentration 1.0 uM, tested as the 2H-labelled form
[30] = biological target: Serine/threonine-protein kinase N1 (Homo sapiens) (UniProt Q16512); test: PRK1(h) Kinase panel; conditions: Compound concentration 1.0 uM, tested as the 2H-labelled form
[31] = biological target: Homeodomain-interacting protein kinase 2 (Homo sapiens) (UniProt Q9H2X6); test: HIPK2(h) Kinase panel; conditions: Compound concentration 1.0 uM, tested as the 2H-labelled form
[32] = biological target: Bone morphogenetic protein receptor type-1B (Homo sapiens) (UniProt O00238); test: ALK6(h) Kinase panel; conditions: Compound concentration 1.0 uM, tested as the 2H-labelled form
[33] = biological target: Tyrosine-protein kinase CSK (Homo sapiens) (UniProt P41240); test: CSK(h) Kinase panel; conditions: Compound concentration 1.0 uM, tested as the 2H-labelled form
[34] = biological target: Serine/threonine-protein kinase Sgk1 (Homo sapiens) (UniProt O00141); test: SGK(h) Kinase panel; conditions: Compound concentration 1.0 uM, tested as the 2H-labelled form
[35] = biological target: Ephrin type-A receptor 3 (Homo sapiens) (UniProt P29320); test: EphA3(h) Kinase panel; conditions: Compound concentration 1.0 uM, tested as the 2H-labelled form
[36] = biological target: Serine/threonine-protein kinase ULK2 (Homo sapiens) (UniProt Q8IYT8); test: ULK2(h) Kinase panel; conditions: Compound concentration 1.0 uM, tested as the 2H-labelled form
[37] = biological target: cGMP-dependent protein kinase 2 (Homo sapiens) (UniProt Q13237); test: PRKG2(h) Kinase panel; conditions: Compound concentration 1.0 uM, tested as the 2H-labelled form
[38] = biological target: Cyclin-dependent kinase 2 (Homo sapiens) (UniProt P24941); test: CDK2/cyclinE(h) Kinase panel; conditions: Compound concentration 1.0 uM, tested as the 2H-labelled form
[39] = biological target: Wee1-like protein kinase 2 (Homo sapiens) (UniProt P0C1S8); test: Wee1B(h) Kinase panel; conditions: Compound concentration 1.0 uM, tested as the 2H-labelled form
[40] = biological target: Ephrin type-A receptor 8 (Homo sapiens) (UniProt P29322); test: EphA8(h) Kinase panel; conditions: Compound concentration 1.0 uM, tested as the 2H-labelled form
[41] = biological target: Cyclin-dependent kinase 5 (Homo sapiens) (UniProt Q00535); test: CDK5/p35(h) Kinase panel; conditions: Compound concentration 1.0 uM, tested as the 2H-labelled form
[42] = biological target: Mitogen-activated protein kinase kinase kinase kinase 3 (Homo sapiens) (UniProt Q8IVH8); test: MAP4K3(h) Kinase panel; conditions: Compound concentration 1.0 uM, tested as the 2H-labelled form
[43] = biological target: Tyrosine-protein kinase ABL1 (Homo sapiens) (UniProt P00519); test: Abl(h) Kinase panel; conditions: Compound concentration 1.0 uM, tested as the 2H-labelled form
[44] = biological target: Cyclin-dependent kinase-like 2 (Homo sapiens) (UniProt Q92772); test: CDKL2(h) Kinase panel; conditions: Compound concentration 1.0 uM, tested as the 2H-labelled form
[45] = biological target: Serine/threonine-protein kinase WNK1 (Homo sapiens) (UniProt Q9H4A3); test: WNK1(h) Kinase panel; conditions: Compound concentration 1.0 uM, tested as the 2H-labelled form
[46] = biological target: D(4) dopamine receptor (Homo sapiens) (UniProt P21917); conditions: Compound concentration 10.0 uM, tested as the 2H-labelled form
[47] = biological target: Cyclin-dependent kinase 6 (Homo sapiens) (UniProt Q00534); test: CDK6/cyclinD3(h) Kinase panel; conditions: Compound concentration 1.0 uM, tested as the 2H-labelled form
[48] = biological target: Ribosomal protein S6 kinase alpha-2 (Homo sapiens) (UniProt Q15349); test: Rsk3(h) Kinase panel; conditions: Compound concentration 1.0 uM, tested as the 2H-labelled form
[49] = biological target: Serine/threonine-protein kinase SIK1 (Homo sapiens) (UniProt P57059); test: SIK(h) Kinase panel; conditions: Compound concentration 1.0 uM, tested as the 2H-labelled form
[50] = biological target: Rhodopsin kinase GRK7 (Homo sapiens) (UniProt Q8WTQ7); test: GRK7(h) Kinase panel; conditions: Compound concentration 1.0 uM, tested as the 2H-labelled form
[51] = biological target: Alpha-1D adrenergic receptor (Homo sapiens) (UniProt P25100); conditions: Compound concentration 10.0 uM, tested as the 2H-labelled form

Measured: inhibition

Sequence of Cyclin-dependent kinase 18 (Homo sapiens) (Q07002 whole entry): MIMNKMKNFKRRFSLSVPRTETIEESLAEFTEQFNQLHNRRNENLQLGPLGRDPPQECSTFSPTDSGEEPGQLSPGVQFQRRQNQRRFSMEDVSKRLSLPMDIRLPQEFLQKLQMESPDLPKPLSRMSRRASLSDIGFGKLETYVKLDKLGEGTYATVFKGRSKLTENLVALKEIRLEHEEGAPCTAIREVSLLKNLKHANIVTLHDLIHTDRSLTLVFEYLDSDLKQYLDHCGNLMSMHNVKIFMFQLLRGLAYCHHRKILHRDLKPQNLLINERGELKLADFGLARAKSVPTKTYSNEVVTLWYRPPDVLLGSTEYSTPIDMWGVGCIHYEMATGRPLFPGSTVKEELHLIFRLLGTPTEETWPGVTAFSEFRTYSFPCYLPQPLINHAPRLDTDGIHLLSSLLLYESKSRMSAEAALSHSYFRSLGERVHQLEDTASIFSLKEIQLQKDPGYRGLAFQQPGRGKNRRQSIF
Sequence of Serine/threonine-protein kinase DCLK1 (Homo sapiens) (O15075 whole entry): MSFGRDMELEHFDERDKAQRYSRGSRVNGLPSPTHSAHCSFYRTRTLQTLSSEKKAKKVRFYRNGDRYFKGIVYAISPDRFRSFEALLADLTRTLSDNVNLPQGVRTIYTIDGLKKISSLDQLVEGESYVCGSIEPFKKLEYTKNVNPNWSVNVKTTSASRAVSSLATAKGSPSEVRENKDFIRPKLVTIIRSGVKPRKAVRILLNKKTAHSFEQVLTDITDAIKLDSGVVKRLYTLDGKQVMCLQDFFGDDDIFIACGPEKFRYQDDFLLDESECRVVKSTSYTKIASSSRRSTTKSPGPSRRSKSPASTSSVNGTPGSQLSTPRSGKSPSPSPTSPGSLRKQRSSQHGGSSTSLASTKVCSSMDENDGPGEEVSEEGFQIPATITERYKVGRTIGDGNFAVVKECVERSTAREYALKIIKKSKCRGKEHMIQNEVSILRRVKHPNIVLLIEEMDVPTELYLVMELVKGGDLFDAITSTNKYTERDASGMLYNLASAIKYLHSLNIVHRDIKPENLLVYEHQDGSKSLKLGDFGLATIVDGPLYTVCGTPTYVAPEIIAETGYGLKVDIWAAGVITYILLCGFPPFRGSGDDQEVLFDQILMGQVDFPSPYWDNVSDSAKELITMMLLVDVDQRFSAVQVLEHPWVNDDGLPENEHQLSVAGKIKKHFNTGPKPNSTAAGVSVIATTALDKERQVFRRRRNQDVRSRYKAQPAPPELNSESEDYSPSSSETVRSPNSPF
Sequence of Protein kinase C beta type (Homo sapiens) (P05771 2-671 limits assumed): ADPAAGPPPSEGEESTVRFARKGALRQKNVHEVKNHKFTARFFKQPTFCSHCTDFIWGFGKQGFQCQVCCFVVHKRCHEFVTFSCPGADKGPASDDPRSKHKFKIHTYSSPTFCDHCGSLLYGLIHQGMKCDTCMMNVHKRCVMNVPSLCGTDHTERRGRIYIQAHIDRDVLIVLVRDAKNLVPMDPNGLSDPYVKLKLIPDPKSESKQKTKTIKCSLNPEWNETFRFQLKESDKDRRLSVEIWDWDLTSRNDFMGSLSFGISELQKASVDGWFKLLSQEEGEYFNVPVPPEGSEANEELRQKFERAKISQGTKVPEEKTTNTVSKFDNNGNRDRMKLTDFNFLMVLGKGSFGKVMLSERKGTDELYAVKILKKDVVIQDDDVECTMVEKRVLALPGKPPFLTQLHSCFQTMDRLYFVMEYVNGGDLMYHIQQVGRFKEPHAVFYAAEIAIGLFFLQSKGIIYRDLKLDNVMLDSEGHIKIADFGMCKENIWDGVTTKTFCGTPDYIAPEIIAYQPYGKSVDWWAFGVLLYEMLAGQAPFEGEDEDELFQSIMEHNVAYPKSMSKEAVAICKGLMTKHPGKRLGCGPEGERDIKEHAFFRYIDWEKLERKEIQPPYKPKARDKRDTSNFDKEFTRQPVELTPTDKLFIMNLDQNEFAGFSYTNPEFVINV
Sequence of Casein kinase I isoform delta (P48730 whole entry, looked up, canonical isoform): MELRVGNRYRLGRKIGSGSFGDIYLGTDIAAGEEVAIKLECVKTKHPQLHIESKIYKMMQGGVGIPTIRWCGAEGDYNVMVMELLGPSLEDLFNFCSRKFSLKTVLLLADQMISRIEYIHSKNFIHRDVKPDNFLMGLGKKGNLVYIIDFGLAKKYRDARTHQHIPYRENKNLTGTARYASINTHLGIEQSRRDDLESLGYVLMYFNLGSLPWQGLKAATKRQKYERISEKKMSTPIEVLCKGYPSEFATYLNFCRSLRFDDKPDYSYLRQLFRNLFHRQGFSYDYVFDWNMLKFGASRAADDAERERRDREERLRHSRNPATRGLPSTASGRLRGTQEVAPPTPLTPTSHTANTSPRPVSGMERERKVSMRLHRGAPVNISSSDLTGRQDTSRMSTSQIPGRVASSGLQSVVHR
Sequence of Ephrin type-A receptor 3 (Homo sapiens) (P29320 whole entry): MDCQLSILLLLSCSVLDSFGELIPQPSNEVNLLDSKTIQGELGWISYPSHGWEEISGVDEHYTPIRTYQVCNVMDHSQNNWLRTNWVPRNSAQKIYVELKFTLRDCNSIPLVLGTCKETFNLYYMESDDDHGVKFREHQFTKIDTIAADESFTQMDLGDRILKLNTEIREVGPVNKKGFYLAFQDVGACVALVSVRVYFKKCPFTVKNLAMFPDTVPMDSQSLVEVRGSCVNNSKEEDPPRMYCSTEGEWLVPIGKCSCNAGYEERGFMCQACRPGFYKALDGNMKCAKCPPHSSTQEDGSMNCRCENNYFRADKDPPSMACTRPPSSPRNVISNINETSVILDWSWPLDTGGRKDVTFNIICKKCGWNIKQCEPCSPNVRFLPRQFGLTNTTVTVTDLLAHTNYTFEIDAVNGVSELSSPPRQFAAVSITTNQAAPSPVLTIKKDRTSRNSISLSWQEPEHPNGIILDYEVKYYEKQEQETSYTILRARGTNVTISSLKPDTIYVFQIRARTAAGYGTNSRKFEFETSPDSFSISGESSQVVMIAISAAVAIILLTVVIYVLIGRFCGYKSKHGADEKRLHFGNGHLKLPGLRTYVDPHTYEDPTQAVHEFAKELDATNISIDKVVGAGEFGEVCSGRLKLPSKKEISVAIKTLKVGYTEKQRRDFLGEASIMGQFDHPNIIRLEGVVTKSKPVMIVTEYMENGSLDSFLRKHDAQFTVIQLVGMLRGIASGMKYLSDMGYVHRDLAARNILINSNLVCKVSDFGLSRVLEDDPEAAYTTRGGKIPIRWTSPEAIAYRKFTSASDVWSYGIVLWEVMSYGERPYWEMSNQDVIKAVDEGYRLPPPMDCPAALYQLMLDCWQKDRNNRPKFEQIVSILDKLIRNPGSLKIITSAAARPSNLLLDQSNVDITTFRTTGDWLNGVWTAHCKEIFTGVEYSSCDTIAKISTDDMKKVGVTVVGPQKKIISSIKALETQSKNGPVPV
Sequence of D(4) dopamine receptor (Homo sapiens) (P21917 whole entry): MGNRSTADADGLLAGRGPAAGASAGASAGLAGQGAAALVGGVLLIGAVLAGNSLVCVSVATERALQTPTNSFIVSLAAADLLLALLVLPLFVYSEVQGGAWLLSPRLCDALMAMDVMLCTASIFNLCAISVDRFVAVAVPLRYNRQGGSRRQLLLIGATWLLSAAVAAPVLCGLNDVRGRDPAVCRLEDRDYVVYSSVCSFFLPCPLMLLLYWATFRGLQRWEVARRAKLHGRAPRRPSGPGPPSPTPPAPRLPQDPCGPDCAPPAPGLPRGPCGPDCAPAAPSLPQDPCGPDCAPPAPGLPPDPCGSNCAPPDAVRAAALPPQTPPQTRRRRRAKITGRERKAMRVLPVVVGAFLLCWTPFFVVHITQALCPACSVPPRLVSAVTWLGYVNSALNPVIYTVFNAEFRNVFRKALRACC
Sequence of Cyclin-dependent kinase-like 2 (Homo sapiens) (Q92772 whole entry): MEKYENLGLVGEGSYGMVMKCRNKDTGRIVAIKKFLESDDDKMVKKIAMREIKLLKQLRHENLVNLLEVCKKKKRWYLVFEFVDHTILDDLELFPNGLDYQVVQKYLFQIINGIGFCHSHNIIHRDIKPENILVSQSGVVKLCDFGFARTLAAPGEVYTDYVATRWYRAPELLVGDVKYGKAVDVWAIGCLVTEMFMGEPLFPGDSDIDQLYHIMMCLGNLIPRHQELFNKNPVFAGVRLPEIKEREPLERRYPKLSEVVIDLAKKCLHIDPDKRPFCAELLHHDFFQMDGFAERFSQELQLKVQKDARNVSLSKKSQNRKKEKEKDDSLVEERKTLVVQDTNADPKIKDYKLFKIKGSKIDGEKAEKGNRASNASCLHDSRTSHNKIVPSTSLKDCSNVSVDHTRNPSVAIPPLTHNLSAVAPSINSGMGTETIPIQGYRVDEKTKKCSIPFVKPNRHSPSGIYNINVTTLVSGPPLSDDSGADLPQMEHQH
Sequence of Serine/threonine-protein kinase Sgk1 (Homo sapiens) (O00141 whole entry): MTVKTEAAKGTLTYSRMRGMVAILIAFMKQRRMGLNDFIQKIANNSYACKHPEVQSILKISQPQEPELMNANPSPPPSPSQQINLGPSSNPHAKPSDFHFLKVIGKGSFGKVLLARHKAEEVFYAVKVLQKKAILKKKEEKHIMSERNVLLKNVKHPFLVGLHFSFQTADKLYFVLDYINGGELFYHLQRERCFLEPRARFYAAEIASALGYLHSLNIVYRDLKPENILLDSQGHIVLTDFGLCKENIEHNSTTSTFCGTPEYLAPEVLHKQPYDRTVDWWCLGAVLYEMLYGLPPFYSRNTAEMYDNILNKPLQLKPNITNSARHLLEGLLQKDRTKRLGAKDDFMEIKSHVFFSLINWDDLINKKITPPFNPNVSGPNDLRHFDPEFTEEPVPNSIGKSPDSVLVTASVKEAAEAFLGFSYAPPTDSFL
Sequence of Cyclin-dependent kinase 5 (Homo sapiens) (Q00535 whole entry, looked up): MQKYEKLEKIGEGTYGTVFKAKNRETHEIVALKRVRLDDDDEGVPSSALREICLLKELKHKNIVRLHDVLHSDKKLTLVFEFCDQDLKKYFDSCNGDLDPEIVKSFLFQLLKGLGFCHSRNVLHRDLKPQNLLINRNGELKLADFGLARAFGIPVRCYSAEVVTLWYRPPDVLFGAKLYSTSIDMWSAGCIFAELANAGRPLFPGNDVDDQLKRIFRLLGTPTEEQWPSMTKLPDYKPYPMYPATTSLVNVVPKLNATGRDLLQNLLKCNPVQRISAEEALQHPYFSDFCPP

CC1(C)Cn2nc(-c3ccc(F)cn3)c(-c3ccnc4[nH]ncc34)c2CO1
inactive: [1] 14% | [2] 4% | [3] 10% | [4] 16% | [5] -4% | [6] -1% | [7] 9% | [8] 7% | [9] -6% | [10] 7% | [11] 0% | [12] 12% | [13] -5% | [14] 105% | [15] 12% | [16] -5% | [17] 1% | [18] -7% | [19] 24% | [20] 4% | [21] 0% | [22] -6% | [23] 4% | Homo sapiens 6% | [24] 10% | [25] 7% | [26] 7% | [27] -9% | [28] 10% | [29] 15% | [30] 9% | [31] 21% | [32] -5% | [33] -3% | [34] 11% | [35] -6% | [36] 17% | [37] 11% | [38] 7% | [39] -1% | [40] 2% | [41] 15% | [42] -7% | [43] -1% | [44] 0% | [45] 7% | [46] -5.66% | [47] -7% | [48] -7% | [49] -9% | [50] 16% | [51] 8.27%
active: Rattus norvegicus 50.9%
